molecular target: T1, human RXFP1 (Homo sapiens, UniProt Q9HBX9); experiment: hRXFP1 HEK293 cAMP assay (HTRF); type: cell-based; settings: HEK293 cells stably expressing human RXFP1, 30 min at room temperature
T1 construct: expressed in transfected cells
T1 sequence (Q9HBX9 1-757): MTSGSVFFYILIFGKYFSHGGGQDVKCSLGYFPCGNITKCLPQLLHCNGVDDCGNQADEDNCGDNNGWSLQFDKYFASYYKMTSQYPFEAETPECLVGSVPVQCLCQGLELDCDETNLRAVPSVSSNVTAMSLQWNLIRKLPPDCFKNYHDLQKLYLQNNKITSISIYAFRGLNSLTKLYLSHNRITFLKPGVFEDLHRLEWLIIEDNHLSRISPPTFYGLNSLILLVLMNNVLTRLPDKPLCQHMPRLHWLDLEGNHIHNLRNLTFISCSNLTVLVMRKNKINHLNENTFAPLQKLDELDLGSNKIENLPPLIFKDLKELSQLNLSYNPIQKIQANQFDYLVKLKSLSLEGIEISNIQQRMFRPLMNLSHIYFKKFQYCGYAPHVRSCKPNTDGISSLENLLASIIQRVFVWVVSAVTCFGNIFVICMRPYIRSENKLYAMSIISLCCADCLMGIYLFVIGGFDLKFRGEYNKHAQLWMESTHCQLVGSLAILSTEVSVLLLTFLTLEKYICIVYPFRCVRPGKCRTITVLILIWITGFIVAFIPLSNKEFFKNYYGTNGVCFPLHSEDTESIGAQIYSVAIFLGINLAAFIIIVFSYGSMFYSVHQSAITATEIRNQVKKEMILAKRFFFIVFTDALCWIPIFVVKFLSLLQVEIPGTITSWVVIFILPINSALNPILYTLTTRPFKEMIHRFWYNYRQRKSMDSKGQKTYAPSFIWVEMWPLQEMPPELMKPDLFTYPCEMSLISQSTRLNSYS
Method in brief: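 HEK293 cells stably expressing human RXFP1 (1500 cells/well) in HBSS/20 mM HEPES/0.05% BSA/0.5 mM IBMX. Compounds were tested at 0.010 nM–50 μM final (2% DMSO) for 30 min at room temperature. cAMP was measured by HTRF and values derived by 4-parameter logistic fit.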

| Compound | EC50 |
| --- | --- |
| COc1ccc(C(=O)N2CCCC(CO)C2)cc1C(=O)N[C@H]1[C@@H](C(=O)Nc2ccc(F)c(C(F)(F)F)c2)[C@H]2CC[C@@H]1/C2=C\C1CC1 (stereo partly drawn) [Example 234, (1R,2S,3R,4R,7Z)-7-(cyclopropyl-methylidene)-N-[4-fluoro-3-(trifluoromethyl)phenyl]-3-{5-[3-(hydroxymethyl)piperidine-1-carbonyl]-2-methoxybenzamido} bicyclo[2.2.1]heptane-2-carboxamide] | 64.8 nM |
| COc1ccc(C(=O)N2CCCC(CO)C2)cc1C(=O)N[C@H]1[C@@H](C(=O)Nc2ccc(F)c(C(F)(F)F)c2)[C@H]2CC[C@@H]1/C2=C\C1CC1 (stereo partly drawn) [Example 235, (1R,2S,3R,4R,7Z)-7-(cyclopropylmethyl-idene)-N-[4-fluoro-3-(trifluoromethyl)phenyl]-3-{5-[3-(hydroxymethyl)piperidine-1-carbonyl]-2-methoxybenzamido} bicyclo[2.2.1] heptane-2-carboxamide] | 130 nM |
| COc1ccc(C(=O)NC(C)(C)C)cc1C(=O)N[C@H]1[C@@H](C(=O)Nc2ccc(F)c(C(F)(F)F)c2)[C@H]2CC[C@@H]1/C2=C\C1CC1 [Example 236, N1-tert-butyl-N3-[(1R,2R,3S,4R,7Z)-7-(cyclopropyl-methylidene)-3-{[4-fluoro-3-(trifluoromethyl)phenyl]carbamoyl}bicyclo[2.2.1]heptan-2-yl]-4-methoxybenzene-1,3-dicarboxamide] | 234 nM |
| COc1ccc(C(=O)N2CC(C)(C)C2)cc1C(=O)N[C@H]1[C@@H](C(=O)Nc2ccc(F)c(C(F)(F)F)c2)[C@H]2CC[C@@H]1/C2=C\C1CC1 [Example 237] | 41.3 nM |
| COc1ccc(C(=O)NCC(C)(C)C)cc1C(=O)N[C@H]1[C@@H](C(=O)Nc2ccc(F)c(C(F)(F)F)c2)[C@H]2CC[C@@H]1/C2=C\C1CC1 [Example 238, N3-[(1R,2R,3S,4R,7Z)-7-(cyclopropyl-methylidene)-3-{[4-fluoro-3-(trifluoromethyl)phenyl]carbamoyl}bicyclo[2.2.1]heptan-2-yl]-N1-(2,2-dimethylpropyl)-4-methoxybenzene-1,3-dicarboxamide] | 14 nM |
| COc1ccc(C(=O)NC(C)(C)CO)cc1C(=O)N[C@H]1[C@@H](C(=O)Nc2ccc(F)c(C(F)(F)F)c2)[C@H]2CC[C@@H]1/C2=C\C1CC1 [Example 239, N3-[(1R,2R,3S,4R,7Z)-7-(cyclopropyl-methylidene)-3-{[4-fluoro-3-(trifluoromethyl)phenyl]carbamoyl}bicyclo[2.2.1]heptan-2-yl]-N1-(1-hydroxy-2-methylpropan-2-yl)-4-methoxybenzene-1,3-dicarboxamide] | 27.8 nM |
| COc1ccc(C(=O)NCC(C)(C)O)cc1C(=O)N[C@H]1[C@@H](C(=O)Nc2ccc(F)c(C(F)(F)F)c2)[C@H]2CC[C@@H]1/C2=C\C1CC1 [Example 240, N3-[(1R,2R,3S,4R,7Z)-7-(cyclopropyl-methylidene)-3-{[4-fluoro-3-(trifluoromethyl)phenyl]carbamoyl}bicyclo[2.2.1]heptan-2-yl]-N1-(2-hydroxy-2-methylpropyl)-4-methoxybenzene-1,3-dicarboxamide] | 53.1 nM |
| COc1ccc(C(=O)N(C)C(C)(C)C)cc1C(=O)N[C@H]1[C@@H](C(=O)Nc2ccc(F)c(C(F)(F)F)c2)[C@H]2CC[C@@H]1/C2=C\C1CC1 [Example 241, N1-tert-butyl-N3-[(1R,2R,3S,4R,7Z)-7-(cyclopropyl-methylidene)-3-{[4-fluoro-3-(trifluoromethyl)phenyl]carbamoyl}bicyclo[2.2.1]heptan-2-yl]-4-methoxy-N1-methylbenzene-1,3-dicarboxamide] | 69.8 nM |
| COc1ccc(C(=O)N2CCS(=O)(=O)CC2)cc1C(=O)N[C@H]1[C@@H](C(=O)Nc2ccc(F)c(C(F)(F)F)c2)[C@H]2CC[C@@H]1/C2=C\C1CC1 [Example 242, (1R,2S,3R,4R,7Z)-7-(cyclopropyl-methylidene)-3-[5-(1,1-dioxo-1λ.^6-thiomorpholine-4-carbonyl)-2-methoxybenzamido]-N-[4-fluoro-3-(trifluoromethyl)phenyl]bicyclo [2.2.1] heptane-2-carboxamide] | 261 nM |
| COc1ccc(C(=O)N2CC3(C2)CS(=O)(=O)C3)cc1C(=O)N[C@H]1[C@@H](C(=O)Nc2ccc(F)c(C(F)(F)F)c2)[C@H]2CC[C@@H]1/C2=C\C1CC1 [Example 243, (1R,2S,3R,4R,7Z)-7-(cyclopropyl-methylidene)-3-(5-{2,2-dioxo-2λ^6-thia-6-azaspiro[3.3]heptane-6-carbonyl}-2-methoxybenzamido)-N-[4-fluoro-3-(trifluoromethyl)phenyl]bicyclo[2.2.1] heptane-2-carboxamide] | 11.9 nM |
| COc1ccc(C(=O)N2CC[C@@H](O)C2)cc1C(=O)N[C@H]1[C@@H](C(=O)Nc2ccc(F)c(C(F)(F)F)c2)[C@H]2CC[C@@H]1/C2=C\C1CC1 [Example 244, (1R,2S,3R,4R,7Z)-7-(cyclopropyl-methylidene)-N-[4-fluoro-3-(trifluoromethyl)phenyl]-3-{5-[(3R)-3-hydroxypyrrolidine-1-carbonyl]-2-methoxybenzamido} bicyclo[2.2.1]heptane-2-carboxamide] | 11 nM |
| COc1ccc(C(=O)N2CC[C@@H](CO)C2)cc1C(=O)N[C@H]1[C@@H](C(=O)Nc2ccc(F)c(C(F)(F)F)c2)[C@H]2CC[C@@H]1/C2=C\C1CC1 [Example 245, (1R,2S,3R,4R,7Z)-7-(cyclopropyl-methylidene)-N-[4-fluoro-3-(trifluoromethyl)phenyl]-3-{5-[(3R)-3-(hydroxymethyl)pyrrolidine-1-carbonyl]-2-methoxybenzamido} bicyclo[2.2.1]heptane-2-carboxamide] | 37.8 nM |
| COc1ccc(C(=O)N2CCC3(CC2)COC3)cc1C(=O)N[C@H]1[C@@H](C(=O)Nc2ccc(F)c(C(F)(F)F)c2)[C@H]2CC[C@@H]1/C2=C\C1CC1 [Example 246, (1R,2S,3R, 4R,7Z)-7-(cyclopropyl-methylidene)-N-[4-fluoro-3-(trifluoromethyl)phenyl]-3-(2-methoxy-5-{2-oxa-7-azaspiro[3.5]nonane-7-carbonyl}benzamido) bicyclo[2.2.1] heptane-2-carboxamide] | 13.7 nM |
| COc1ccc(C(=O)N2CCC(S(C)(=O)=O)CC2)cc1C(=O)N[C@H]1[C@@H](C(=O)Nc2ccc(F)c(C(F)(F)F)c2)[C@H]2CC[C@@H]1/C2=C\C1CC1 [Example 247, (1R,2S,3R,4R,7Z)-7-(cyclopropylmethyl-idene)-N-[4-fluoro-3-(trifluoromethyl)phenyl]-3-[5-(4-methanesulfonyl-piperidine-1-carbonyl)-2-methoxybenzamido] bicyclo[2.2.1] heptane-2-carboxamide] | 27.2 nM |
| COc1ccc(C(=O)N2CC3(COC3)C2)cc1C(=O)N[C@H]1[C@@H](C(=O)Nc2ccc(F)c(C(F)(F)F)c2)[C@H]2CC[C@@H]1/C2=C\C1CC1 [Example 248, (1R,2S,3R,4R,7Z)-7-(cyclopropylmethyl-idene)-N-[4-fluoro-3-(trifluoromethyl)phenyl]-3-(2-methoxy-5-{2-oxa-6-azaspiro[3.3]heptane-6-carbonyl}benzamido) bicyclo[2.2.1]heptane-2-carboxamide] | 128 nM |
| COc1ccc(C(=O)N2C[C@H]3CNC[C@H]3C2)cc1C(=O)N[C@H]1[C@@H](C(=O)Nc2ccc(F)c(C(F)(F)F)c2)[C@H]2CC[C@@H]1/C2=C\C1CC1 [Example 249] | 432 nM |

Source: patent US20250268903A1, “RXFP1 AGONISTS” (BRISTOL-MYERS SQUIBB COMPANY, priority 2021, published 2025)
